For one test, the target named is T1, LPAM-1/VCAM-1 (Homo sapiens, UniProt P13612+P26010).
T1 sequence (P13612 34-1032): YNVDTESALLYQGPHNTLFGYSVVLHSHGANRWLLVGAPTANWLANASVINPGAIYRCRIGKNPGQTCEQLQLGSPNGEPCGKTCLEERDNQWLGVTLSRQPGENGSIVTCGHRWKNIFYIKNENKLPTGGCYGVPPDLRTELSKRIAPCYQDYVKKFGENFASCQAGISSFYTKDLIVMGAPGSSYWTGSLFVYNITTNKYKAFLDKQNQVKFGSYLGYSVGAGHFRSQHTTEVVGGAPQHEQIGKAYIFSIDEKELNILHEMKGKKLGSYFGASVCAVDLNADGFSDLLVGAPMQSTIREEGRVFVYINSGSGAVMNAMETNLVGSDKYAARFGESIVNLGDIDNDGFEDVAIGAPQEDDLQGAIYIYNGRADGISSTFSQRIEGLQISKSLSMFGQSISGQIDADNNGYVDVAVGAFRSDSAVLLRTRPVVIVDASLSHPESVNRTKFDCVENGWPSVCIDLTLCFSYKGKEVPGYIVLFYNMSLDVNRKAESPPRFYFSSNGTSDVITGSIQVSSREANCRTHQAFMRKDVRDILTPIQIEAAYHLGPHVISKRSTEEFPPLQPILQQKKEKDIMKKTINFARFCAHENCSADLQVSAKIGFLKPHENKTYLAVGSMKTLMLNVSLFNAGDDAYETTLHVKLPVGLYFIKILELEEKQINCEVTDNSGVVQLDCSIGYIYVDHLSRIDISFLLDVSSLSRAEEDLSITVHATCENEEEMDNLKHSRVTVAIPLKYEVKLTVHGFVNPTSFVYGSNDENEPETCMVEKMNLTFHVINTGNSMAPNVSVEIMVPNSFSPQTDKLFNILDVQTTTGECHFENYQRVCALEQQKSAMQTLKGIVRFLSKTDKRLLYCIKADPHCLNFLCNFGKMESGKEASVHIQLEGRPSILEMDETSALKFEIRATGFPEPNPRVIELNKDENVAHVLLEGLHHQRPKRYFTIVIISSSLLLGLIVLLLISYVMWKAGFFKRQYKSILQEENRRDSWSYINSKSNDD
T1 sequence (P26010 20-798): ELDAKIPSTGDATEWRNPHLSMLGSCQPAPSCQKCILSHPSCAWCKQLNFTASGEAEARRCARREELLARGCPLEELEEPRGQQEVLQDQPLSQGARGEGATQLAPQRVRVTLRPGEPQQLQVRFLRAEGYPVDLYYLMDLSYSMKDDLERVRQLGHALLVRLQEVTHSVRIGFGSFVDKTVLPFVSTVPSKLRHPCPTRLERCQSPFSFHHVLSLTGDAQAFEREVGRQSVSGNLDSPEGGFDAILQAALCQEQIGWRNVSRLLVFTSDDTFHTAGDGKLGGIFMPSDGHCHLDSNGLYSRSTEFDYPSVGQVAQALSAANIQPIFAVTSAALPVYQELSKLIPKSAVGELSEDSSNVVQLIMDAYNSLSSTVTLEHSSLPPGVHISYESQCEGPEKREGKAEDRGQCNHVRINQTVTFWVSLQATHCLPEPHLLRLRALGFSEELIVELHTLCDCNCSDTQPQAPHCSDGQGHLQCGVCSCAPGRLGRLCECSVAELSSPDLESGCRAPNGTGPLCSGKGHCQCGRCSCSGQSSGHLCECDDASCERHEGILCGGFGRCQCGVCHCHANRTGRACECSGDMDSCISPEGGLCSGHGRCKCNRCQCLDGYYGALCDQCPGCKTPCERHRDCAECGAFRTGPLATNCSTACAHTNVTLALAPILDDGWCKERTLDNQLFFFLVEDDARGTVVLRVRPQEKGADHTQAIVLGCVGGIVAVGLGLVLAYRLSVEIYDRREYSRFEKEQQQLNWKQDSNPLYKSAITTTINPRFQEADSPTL
As to the kind of experiment: LPAM-1/VCAM-1 adhesion inhibition test. The test is classed as cell-based.

A further test concerns the target T2, VLA-4/VCAM-1 (Homo sapiens, UniProt P05556+P13612).
T2 construct: endogenous in cells; host or cells: HL-60 cells (VLA-4, endogenous); CHO cells transfected with a human VCAM-1 gene (the ligand VCAM-1)
As to the kind of experiment: VLA-4/VCAM-1 adhesion inhibition test (BCECF-labelled HL-60 cells adhering to VCAM-1 expressing CHO cells). The test is classed as cell-based. To be noted: adhesion of VLA-4 expressing HL-60 cells to CHO cells transfected with human VCAM-1 gene; read-out: 50% inhibition concentration. The procedure:
Test Example 1 VLA-4/VCAM-1 Adhesion Inhibition Test
The above VCAM-1 expressing CHO cells were placed in a 96-well culture plate in amount of 7×10^3 cells per well and cultured in Ham's F-12 medium containing 10 wt % fetal calf serum (FCS) for 3 days until a confluent state was satisfied. The HL-60 cells were re-floated in Hanks' solution containing 0.4 wt % bovine serum albumin (BSA), and 5 μM of 2′,7′-bis(carboxyethyl)-5(6)-carboxyfluorescein penta acetoxy methyl ester (BCECF-AM) was added to label the cells. Solutions having various concentrations of each test substance and having an amount of 20 μl each were added to 180 μl each of suspensions of BCECF-labeled HL-60 cells re-floated at a rate of 4×10^6 cells/ml in the FCS-non-containing RPMI 1640 culture medium, and pre-treated at 37° C. for 15 minutes.
Then, the pre-treated HL-60 cells were stratified in the 96-well plate culturing the VCAM-1 expressing CHO cells at a rate of 2×10^5 cells per well, and allowed to adhere thereto at 37° C. for 5 minutes. Then, the plate was filled with 0.4 wt % BSA Hanks, covered with a plate sealer and turned upside down. Further, the cells were cultured for 45 minutes. After washing, 1 wt % NP-40-containing PBS was added to destroy the cells, and the thus-obtained supernatants were measured for fluorescence intensity with a cyto Fluor 2300 fluorescence measurement system (supplied by Millipore).
Further, as a blank, 1 wt % NP-40-containing PBS was measured for fluorescence intensity. Further, as standards, a fluorescence-labeled HL-60 floating liquid was added to 1 wt % NP-40-containing PBS at a rate of 2×10^5, 10^5, 2×10^4 and 10^4 cells/ml, the cells were destroyed, and the thus-obtained supernatants were measured for fluorescence intensity.
Each test substance was measured as described above, and on the basis of the calibration curve prepared from the measurements of the standard, cells in a control and cells adhering to the VCAM-1 expressive CHO cells due to the addition of the test substances were measured for numbers, and cell adhesion inhibition ratios (%) were calculated on the basis of the following equation.
Cell adhesion inhibition ratio (%)=100×[1−(number of adhered cells of groups to which the test substance was added/number of adhered cells of control groups)

pIC50: −log10 of the molar value.

T2 sequence (P05556 21-798, one chain of several): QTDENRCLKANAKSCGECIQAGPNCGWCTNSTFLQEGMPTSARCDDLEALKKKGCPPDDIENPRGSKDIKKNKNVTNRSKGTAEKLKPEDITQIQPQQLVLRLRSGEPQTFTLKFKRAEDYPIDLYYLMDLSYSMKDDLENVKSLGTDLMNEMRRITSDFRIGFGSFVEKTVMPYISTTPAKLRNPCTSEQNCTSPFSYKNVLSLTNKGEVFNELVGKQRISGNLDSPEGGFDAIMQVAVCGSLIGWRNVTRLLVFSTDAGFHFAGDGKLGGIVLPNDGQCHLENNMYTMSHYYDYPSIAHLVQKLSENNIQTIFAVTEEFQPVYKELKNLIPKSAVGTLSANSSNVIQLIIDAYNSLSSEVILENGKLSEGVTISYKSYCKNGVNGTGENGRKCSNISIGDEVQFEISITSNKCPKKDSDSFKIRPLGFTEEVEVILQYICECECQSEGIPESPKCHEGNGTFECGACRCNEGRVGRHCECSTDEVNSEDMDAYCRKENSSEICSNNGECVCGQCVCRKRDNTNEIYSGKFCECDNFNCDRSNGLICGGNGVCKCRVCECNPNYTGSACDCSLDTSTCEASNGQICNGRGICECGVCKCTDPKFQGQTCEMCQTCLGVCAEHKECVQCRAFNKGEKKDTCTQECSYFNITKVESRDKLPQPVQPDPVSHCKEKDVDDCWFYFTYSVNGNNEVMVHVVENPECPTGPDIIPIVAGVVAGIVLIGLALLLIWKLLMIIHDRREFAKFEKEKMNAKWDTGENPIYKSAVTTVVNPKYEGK

As for `COc1ccc(C(Cc2ccc(NC(=O)c3c(Cl)cccc3Cl)nc2)C(=O)O)cc1N(CC(C)C)C(=O)C(C)(C)C` (centres unmarked) [Example 1, 3-[2-(2,6-dichlorobenzoylamino)pyrid-5-yl]-2-{3-[(2,2-dimethylpropionyl)isobutylamino]-4-methoxyphenyl}propionic acid], on LPAM-1/VCAM-1, the adhesion inhibition activity entry is reported as “adhesion inhibition activity was found”. For the same compound, the pIC50 on VLA-4/VCAM-1 was 8.52.

In the case of `COc1ccc(C(Cc2ccc(NC(=O)c3c(Cl)cccc3Cl)nc2)C(=O)O)cc1N(CC(C)C)C(=O)C(C)C` (centres unmarked) [Example 2], at VLA-4/VCAM-1, the pIC50 is 7.92.

Turning to `CCC(CC)C(=O)N(CC(C)C)c1cc(C(Cc2ccc(NC(=O)c3c(Cl)cccc3Cl)nc2)C(=O)O)ccc1OC` (centres unmarked) [Example 3], the pIC50 on VLA-4/VCAM-1 is 7.48.

For the compound `CCOc1ccc(C(Cc2ccc(NC(=O)c3c(Cl)cccc3Cl)nc2)C(=O)O)cc1N(CC(C)C)C(=O)C(C)C` (centres unmarked) [Example 5], at VLA-4/VCAM-1, the pIC50 was 7.32.

Regarding `CCOc1ccc(C(Cc2ccc(NC(=O)c3c(Cl)cccc3Cl)nc2)C(=O)O)cc1N(CC(C)C)C(=O)C(C)(C)C` (centres unmarked) [Example 6], the pIC50 on VLA-4/VCAM-1 was 7.89.

Turning to `CCOc1ccc(C(Cc2ccc(NC(=O)c3c(Cl)cccc3Cl)nc2)C(=O)O)cc1N(CC(C)C)C(=O)C(CC)CC` (centres unmarked) [Example 7], the pIC50 on VLA-4/VCAM-1 is 8.14.

`COc1ccc(C(Cc2ccc(NC(=O)c3c(Cl)cncc3Cl)nc2)C(=O)O)cc1N(CC(C)C)C(=O)C(C)(C)C` (centres unmarked) [Example 9]: the adhesion inhibition activity entry at LPAM-1/VCAM-1 is listed as “adhesion inhibition activity was found”. Besides, the pIC50 at VLA-4/VCAM-1 is 8.55.

On to `CCOc1ccc(C(Cc2ccc(NC(=O)c3c(Cl)cncc3Cl)nc2)C(=O)O)cc1N(CC(C)C)C(=O)C(C)(C)C` (centres unmarked) [Example 10], for which the adhesion inhibition activity entry on LPAM-1/VCAM-1 is “adhesion inhibition activity was found”. Further, at VLA-4/VCAM-1, the pIC50 was 8.92.

Values taken from patent US7361679B2, “2-phenyl-3-heteroarylpropionic acid derivative or salt thereof and medicine containing the same” (Kaken Pharmaceutical Co., Ltd., priority 2001, dated 2008).
